Patent publication US20240003908A1, “POLYOL BIOMARKERS FOR CONGENITAL DISORDERS OF GLYCOSYLATION” (Mayo Foundation for Medical Education and Research, priority 2020, published 2024)

System: PMM-deficient fibroblasts
Test: Glycoproteomics of PMM-deficient fibroblasts treated with epalrestat or vehicle
Format: cell-based, human
Text: Proteomics and glycoproteomics: Cell were scraped in PBS, pH 7.4 and sonicated with a tip sonicator at 40% amplitude for 3 cycles of 10 seconds each. Equal amount of proteins were digested with trypsin as described elsewhere (Mun et al., Anal Chem 92:14466-14475, 2020). The digested peptides were labeled with tandem mass tag (TMT) reagents as per the manufacturer's instructions (ThermoFisher). Labelled samples were pooled, and either size-exclusion chromatography or basic pH reversed-phase fractionation was performed. An aliquot of dried peptides was resuspended in 100 μL of 0.1% formic acid and injected into Superdex peptide 10/300 column (GE Healthcare). Twenty-one (21) early fractions were collected starting at 10 minutes after injection (total run time of 130 minutes) and analyzed by LC-MS/MS as described elsewhere (Mun et al., supra). Another aliquot of total peptides was cleaned up by C18 TopTips (Glygen) and fractionated by bRPLC on a reversed phase C18 column (4.6×100 mm column). Twelve (12) fractions were dried and re-suspended in 0.1% formic acid for LC-MS/MS analysis.
A modification of the LC-MS/MS parameters described by Mun et al. (supra) were used. Specifically, 21 early fractions from SEC and 12 fractions of bRPLC were analyzed by Orbitrap Exploris480 mass spectrometer (Thermo Fisher Scientific) coupled to an EASY-Spray column (Thermo Fisher Scientific). Every run was 130 minutes with a flow rate of 300 nL/minute. The gradient used for separation was: equilibration at 3% solvent B from 0 to 4 minutes, 3% to 10% sol B from 4 to 10 minutes, 10% to 35% sol B from 10.1 to 125 minutes, and 35% to 80% sol B from […]. All experiments were done in DDA mode with the top 15 ions isolated at a window of 0.7 m/z and a default charge state of +2. Charge states ranging from +2 to +7 were considered for MS/MS events. Stepped collision energy was applied to precursors at normalized collision energies of 15, 25, and 40. The MS precursor mass range was set to 375 to 2000 m/z and 100 to 2000 for MS/MS. The automatic gain control for MS and MS/MS were 1×10^6 and 1×10^5 and the injection times to reach AGC were 50 ms and 250 ms, respectively. 60 second dynamic exclusion was applied. Data acquisition was performed with the option of Lock mass (441.1200025 m/z) for all data.
Database searching and analysis: The publicly available software pGlyco Version 2.2.0 was used (Zeng et al., Sci Rep 6:25102, 2016; and Liu et al., Nat Commun 8:438, 2017). A glycan database containing 8,092 entries and Uniprot Human Reviewed protein sequences (20,432 entries) were used as protein sequence fasta files. Cleavage specificity was set to fully tryptic with 2 missed cleavages, and precursor and fragment tolerance were set to 5 and 20 ppm. […] Reporter ion quantification was performed in Proteome Discoverer 2.5 using “reporter ion quantifier” node and Ids were matched with quantitation on a scan-to-scan basis (MS/MS). […]
To compare responders (patients who had more than a 20% increase in enzyme activity after epalrestat treatment) to non-responders (patients who had less than a 20% increase in enzyme activity after epalrestat treatment) and gauge the increase in glycosylation upon epalrestat treatment, linear fold changes (treated/untreated) were calculated for each of these 412 glycopeptides. The fold changes of non-responders were subtracted from the fold changes of the responders, and the fold change difference (delta fold change) was calculated. […]

CC(/C=C1\SC(=S)N(CC(=O)O)C1=O)=C\c1ccccc1 [epalrestat]
share of reduced glycopeptides improved post-treatment (665 of 1,448): 46% | improved glycopeptides that had reduced glycosylation in PMM-deficient fibroblasts compared to controls (among the 412 improved): 97 glycopeptides | number of glycopeptides improved post-treatment, becoming similar to controls (of 1,448 reduced in untreated PMM-deficient fibroblasts): 665 glycopeptides | number of glycopeptides with differential (enhanced) abundance after epalrestat (paired epalrestat vs vehicle): 412 glycopeptides | ICAM-1 Asn267 glycopeptide (Hex7HexNAc6NeuAc2Fuc5) increase in abundance (paired epalrestat vs. vehicle analysis): 10%
